One data set has as its target GCPII (Homo sapiens, UniProt Q04609). Description: fluorescence-based NAALADase assay, in vitro GCPII inhibitory activity. Conditions: relative to 32a.
In the next data set the target is cloned human GCPII. Conditions: cited from earlier work.
Data set [1] relates to inflammatory and neuropathic pain models. Conditions: cited from earlier work.

The structures appear in SMILES notation.

The term Ki denotes the equilibrium dissociation constant of an inhibitor or competing ligand from its target.

Sequence of GCPII (Q04609 whole entry): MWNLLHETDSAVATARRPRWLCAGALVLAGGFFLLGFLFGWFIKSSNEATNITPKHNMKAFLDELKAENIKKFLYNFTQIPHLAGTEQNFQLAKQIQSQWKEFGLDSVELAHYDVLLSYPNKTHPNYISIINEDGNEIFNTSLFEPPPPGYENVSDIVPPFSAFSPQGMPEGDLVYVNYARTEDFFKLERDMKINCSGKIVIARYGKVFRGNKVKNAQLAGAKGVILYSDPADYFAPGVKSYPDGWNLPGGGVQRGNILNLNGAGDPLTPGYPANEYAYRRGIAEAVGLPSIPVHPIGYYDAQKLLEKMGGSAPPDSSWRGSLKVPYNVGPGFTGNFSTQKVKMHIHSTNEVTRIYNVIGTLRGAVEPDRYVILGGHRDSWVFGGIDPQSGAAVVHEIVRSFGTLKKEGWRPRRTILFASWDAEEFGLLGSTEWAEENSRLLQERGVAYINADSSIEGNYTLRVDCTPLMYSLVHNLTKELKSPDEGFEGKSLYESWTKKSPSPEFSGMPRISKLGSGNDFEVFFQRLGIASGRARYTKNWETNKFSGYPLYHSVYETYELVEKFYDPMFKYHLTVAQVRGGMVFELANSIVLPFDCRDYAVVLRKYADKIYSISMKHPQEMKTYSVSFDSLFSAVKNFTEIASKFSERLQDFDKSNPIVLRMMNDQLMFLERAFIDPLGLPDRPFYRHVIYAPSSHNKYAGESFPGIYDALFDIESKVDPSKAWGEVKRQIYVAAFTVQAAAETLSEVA

With `O=C(N[C@@H](CCCCNC(=O)c1ccc(I)cc1)C(=O)O)NC1(C(=O)O)CC1` [32c], on GCPII, the “fold stronger binding affinity for GCPII compared to 32a” value is recorded as 4 fold.
On the same count and under the same terms, with `C=CC[C@H](NC(=O)N[C@@H](CCCCNC(=O)c1ccc(I)cc1)C(=O)O)C(=O)O` [32d] the figure was 120 fold.
Turning to `CC(C)C[C@H](NC(=O)N[C@@H](CCC(=O)O)C(=O)O)C(=O)O` [ZJ-43, (S)-2-(3-((S)-1-carboxy-3-methylbutyl)ureido)pentanedioic acid], the Ki on cloned human GCPII was 800 pM. In data set [1], the “penetration of the blood-brain barrier” value is “low penetration”. For the same compound, the analgesic activity result in data set [1] (high doses (50–100 mg/kg) needed) is given as “demonstrated analgesic activity”.

The values are drawn from PMC2818328 (Bioorganic & medicinal chemistry letters, 2009).
